Experimental data published in US9186296B2, “Containers for compositions comprising meloxicam” (Boehringer Ingelheim Vetmedica GmbH, priority 2009, dated 2015).

Experiment: long-term stability programme according to VICH guideline 3 (storage in bottles of different materials)
Format: physicochemical
Conditions: PP bottles compared with bottles made of HDPE or LDPE; FIG. 4, 5, 6
Method: The preferred pharmaceutical composition filled into containers made of the different types of packaging has been subject to a long-term stability programme according to the conditions as described in the VICH guideline 3. The conditions used for storage were 25° C./60% r.h. (r.h.=relative humidity), 30° C./70% r.h., and 40° C. /75% r.h.
The stability studies of a 0.5 mg/ml suspension were carried out with 3 ml and 4 ml of the suspension being filled into 5 ml HDPE bottles. […] This has not been observed before for any of the suspensions (1.5 mg/ml or 0.5 mg/ml) or the different fill volumes. The shelf-life of the 1.5 mg/ml suspension with a 10 ml fill (in a 25 ml bottle) is for example at least 18 months. An acceptable shelf-life for commercial use of the product with a volume size for the treatment of cats for a few days (up to five days) cannot be established by using HDPE as the container material.
Thus, polypropylene is a suitable material for holding small volumes of oral suspensions comprising meloxicam and sodium benzoate as preservative. The suitability of PP is further shown by comparison with the unsuitable negative reference containers made of PET and PC, see FIGS. 1, 3, and 4.

O=C([O-])c1ccccc1.[Na+] [sodium benzoate]
decrease of sodium benzoate content over 18 months or at least 18 months: significantly lower in PP bottles than in bottles made of either HDPE or LDPE
